For the assay, the system named is BDF1 mice, P388 leukemia ip, median survival T/C. In words: NCI In Vivo Anticancer Drug Screen. Data for tumor model P388 Leukemia (intraperitoneal) in B6D2F1 (BDF1) mice. The conditions noted are these: endpoint: median survival time, higher = longer survival. In a few lines:
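Each value expresses how treatment altered survival: treated-mouse outcome over vehicle-mouse outcome, both groups bearing the transplanted tumour.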

Setting [1] is: dose: 200.0 mg/kg/injection, schedule: Q04DX003 (ip), vehicle: Klucel (hydroxypropylcellulose) (HPC).
[2] abbreviates: dose: 400.0 mg/kg/injection, schedule: Q04DX003 (ip), vehicle: Klucel (hydroxypropylcellulose) (HPC).
The mark [3] stands for this setting: dose: 100.0 mg/kg/injection, schedule: Q01DX009 (ip), vehicle: saline with Tween-80.
The mark [4] stands for this setting: dose: 200.0 mg/kg/injection, schedule: Q01DX009 (ip), vehicle: saline with Tween-80.
[5] abbreviates: dose: 50.0 mg/kg/injection, schedule: Q01DX009 (ip), vehicle: saline with Tween-80.
The mark [6] stands for this setting: dose: 100.0 mg/kg/injection, schedule: Q04DX003 (ip), vehicle: saline with Tween-80.
[7] abbreviates: dose: 25.0 mg/kg/injection, schedule: Q01DX009 (ip), vehicle: saline with Tween-80.
The mark [8] stands for this setting: dose: 25.0 mg/kg/injection, schedule: Q04DX003 (ip), vehicle: saline with Tween-80.

Values joined by “and” are separate entries in the source; they are usually repeats but may differ in a detail not shown here. Identical values can stand only once. Toxic doses and inconclusive results are not listed.

The text below walks through data of PubChem BioAssay AID328 (DTP/NCI, 2004).

Consider `C=C(C)C(O)C(O)c1cc2ccc(=O)oc2cc1OC` (stereo unspecified), for which the T/C runs as follows: (dose: 8.75 mg/kg/injection, schedule: Q01DX009 (ip), vehicle: carboxymethylcellulose (CMC)) 96 % of control; (dose: 17.5 mg/kg/injection, schedule: Q01DX009 (ip), vehicle: carboxymethylcellulose (CMC)) 88 % of control.
On to `CNC(=O)NNc1ccccc1`, for which the T/C was 115 % of control under setting [1] and 115 % of control under setting [2].
Take `CC(C)c1ccc2c(c1)CC[C@H]1[C@](C)(CN=C(N)CCl)CCC[C@]21C`: the T/C was 110 % of control (dose: 1.56 mg/kg/injection, schedule: Q01DX009 (ip), vehicle: Klucel (hydroxypropylcellulose) (HPC)); 112 % of control (dose: 3.13 mg/kg/injection, schedule: Q01DX009 (ip), vehicle: Klucel (hydroxypropylcellulose) (HPC)); 114 % of control (dose: 6.25 mg/kg/injection, schedule: Q01DX009 (ip), vehicle: Klucel (hydroxypropylcellulose) (HPC)).
Regarding `CCOC(=O)CCCN(c1sc(C)c(-c2ccccc2)c1C(=O)OCC)S(=O)(=O)c1ccc(C)cc1`, the T/C reads like this: under setting [3], 109 % of control; under setting [4], 90 % of control.
`CCCCCCCCCC(=O)NC(COC1OC(CO)C(O)C(O)C1O)C(O)c1ccccc1` (stereo unspecified): the T/C is 98 % of control (dose: 25.0 mg/kg/injection, schedule: Q01DX009 (ip), vehicle: suspension in saline); 108 % of control (dose: 50.0 mg/kg/injection, schedule: Q01DX009 (ip), vehicle: suspension in saline); 102 % of control (dose: 100.0 mg/kg/injection, schedule: Q01DX009 (ip), vehicle: suspension in saline).
On to `O=C1c2ccccc2CCC1(Br)C(Br)c1ccccc1` (stereo unspecified), for which the T/C was 100 % of control (dose: 100.0 mg/kg/injection, schedule: Q01DX001 (ip), vehicle: Klucel (hydroxypropylcellulose) (HPC)); 100 % of control (dose: 100.0 mg/kg/injection, schedule: Q01DX009 (ip), vehicle: Klucel (hydroxypropylcellulose) (HPC)); 113 % of control (dose: 100.0 mg/kg/injection, schedule: Q04DX003 (ip), vehicle: Klucel (hydroxypropylcellulose) (HPC)); 90 % of control (dose: 130.0 mg/kg/injection, schedule: Q01DX001 (ip), vehicle: Klucel (hydroxypropylcellulose) (HPC)); 100 % of control (dose: 133.0 mg/kg/injection, schedule: Q01DX001 (ip), vehicle: Klucel (hydroxypropylcellulose) (HPC)); 100 % of control and 109 % of control (dose: 200.0 mg/kg/injection, schedule: Q01DX001 (ip), vehicle: Klucel (hydroxypropylcellulose) (HPC)). Moreover, the T/C by setting is: (dose: 200.0 mg/kg/injection, schedule: Q01DX009 (ip), vehicle: Klucel (hydroxypropylcellulose) (HPC)) 100 % of control; under setting [1], 113 % of control; (dose: 300.0 mg/kg/injection, schedule: Q01DX001 (ip), vehicle: Klucel (hydroxypropylcellulose) (HPC)) 95 % of control and 100 % of control; (dose: 400.0 mg/kg/injection, schedule: Q01DX001 (ip), vehicle: Klucel (hydroxypropylcellulose) (HPC)) 112 % of control; (dose: 400.0 mg/kg/injection, schedule: Q01DX009 (ip), vehicle: Klucel (hydroxypropylcellulose) (HPC)) 100 % of control; under setting [2], 121 % of control.
Turning to `C/C=C1/C[C@@H](C)[C@@](C)(O)C(=O)OCC2=CCN3CC[C@@H](OC1=O)[C@@H]23`, the T/C is, setting by setting: (dose: 7.5 mg/kg/injection, schedule: Q01DX010 (ip), vehicle: steriod suspending solution) 109 % of control; (dose: 15.0 mg/kg/injection, schedule: Q01DX010 (ip), vehicle: steriod suspending solution) 100 % of control; (dose: 30.0 mg/kg/injection, schedule: Q01DX010 (ip), vehicle: steriod suspending solution) 100 % of control; (dose: 60.0 mg/kg/injection, schedule: Q01DX010 (ip), vehicle: steriod suspending solution) 95 % of control and 109 % of control.
Take `Cc1ccc2nc(C)n(C)c(=O)c2c1`: the T/C reads like this: under setting [5], 98 % of control; under setting [3], 91 % of control; under setting [4], 92 % of control.
For `Cc1c(C/C(=N/O)C(=O)O)[nH]c(=S)[nH]c1=O`, the T/C is 100 % of control under setting [6]; 87 % of control (dose: 200.0 mg/kg/injection, schedule: Q04DX003 (ip), vehicle: saline with Tween-80); 100 % of control (dose: 400.0 mg/kg/injection, schedule: Q04DX003 (ip), vehicle: saline with Tween-80).
With `Nc1ccc(OCc2ccccc2)cc1`, the T/C by setting is: (dose: 6.25 mg/kg/injection, schedule: Q01DX009 (ip), vehicle: saline with Tween-80) 90 % of control; (dose: 12.5 mg/kg/injection, schedule: Q01DX009 (ip), vehicle: saline with Tween-80) 100 % of control; under setting [7], 100 % of control; under setting [8], 95 % of control; (dose: 50.0 mg/kg/injection, schedule: Q04DX003 (ip), vehicle: saline with Tween-80) 100 % of control; under setting [6], 100 % of control.
For the compound `O=C(C(Br)C(Br)c1ccccc1)C(Br)C(Br)c1ccccc1` (stereo unspecified), the T/C is 104 % of control under setting [3]; 104 % of control under setting [4]; 100 % of control (dose: 400.0 mg/kg/injection, schedule: Q01DX009 (ip), vehicle: saline with Tween-80).
Turning to `NC(Cc1ccc(OC2CCCC2)c(N(CCCl)CCCl)c1)C(=O)O` (stereo unspecified), the T/C (dose: 0.5 mg/kg/injection, schedule: Q04DX003 (ip), vehicle: Klucel (hydroxypropylcellulose) (HPC)) is 104 % of control; the T/C (dose: 1.0 mg/kg/injection, schedule: Q04DX003 (ip), vehicle: Klucel (hydroxypropylcellulose) (HPC)) was 118 % of control; the T/C (dose: 2.5 mg/kg/injection, schedule: Q04DX003 (ip), vehicle: saline) is 195 % of control; the T/C (dose: 5.0 mg/kg/injection, schedule: Q04DX003 (ip), vehicle: saline) is 227 % of control; the T/C (dose: 7.5 mg/kg/injection, schedule: Q04DX003 (ip), vehicle: saline) was 163 % of control; the T/C (dose: 15.0 mg/kg/injection, schedule: Q04DX003 (ip), vehicle: other) is 179 % of control. For the same compound, the T/C is, setting by setting: (dose: 15.0 mg/kg/injection, schedule: Q04DX003 (ip), vehicle: saline) 154 % of control; (dose: 20.0 mg/kg/injection, schedule: Q04DX003 (ip), vehicle: other) 87 % of control; (dose: 30.0 mg/kg/injection, schedule: Q04DX003 (ip), vehicle: saline) 168 % of control.
`CN(C)C(=S)N(C)C`: the T/C runs as follows: (dose: 100.0 mg/kg/injection, schedule: Q04DX003 (ip), vehicle: saline) 100 % of control; (dose: 200.0 mg/kg/injection, schedule: Q04DX003 (ip), vehicle: saline) 100 % of control; (dose: 400.0 mg/kg/injection, schedule: Q04DX003 (ip), vehicle: saline) 118 % of control.
On to `CNC(=N)c1ccc(NC(=N)c2ccc(NC(=N)c3ccc(NC(=O)Nc4ccc(C(=N)Nc5ccc(C(=N)Nc6ccc(C(=N)NC)cc6)cc5)cc4)cc3)cc2)cc1`, for which the T/C was 150 % of control (dose: 12.5 mg/kg/injection, schedule: Q04DX003 (ip), vehicle: saline with Tween-80); 162 % of control and 186 % of control (dose: 19.0 mg/kg/injection, schedule: Q04DX003 (ip), vehicle: saline with Tween-80); 165 % of control and 180 % of control under setting [7]; 163 % of control under setting [8]; 272 % of control and 172 % of control (dose: 29.0 mg/kg/injection, schedule: Q04DX003 (ip), vehicle: saline with Tween-80); 231 % of control and 195 % of control (dose: 44.0 mg/kg/injection, schedule: Q04DX003 (ip), vehicle: saline with Tween-80). In addition, the T/C by setting is: under setting [5], 230 % of control; (dose: 66.0 mg/kg/injection, schedule: Q04DX003 (ip), vehicle: saline with Tween-80) 200 % of control; (dose: 67.0 mg/kg/injection, schedule: Q04DX003 (ip), vehicle: saline with Tween-80) 229 % of control and 195 % of control; under setting [3], 92 % of control; under setting [6], 250 % of control and 222 % of control.
Take `O=[N+]([O-])C(c1ccccc1)C(c1ccccc1)C(c1ccccc1)[N+](=O)[O-]` (stereo unspecified): the T/C is, setting by setting: (dose: 50.0 mg/kg/injection, schedule: Q01DX005 (ip), vehicle: saline with Tween-80) 103 % of control; (dose: 100.0 mg/kg/injection, schedule: Q01DX005 (ip), vehicle: saline with Tween-80) 87 % of control; (dose: 200.0 mg/kg/injection, schedule: Q01DX005 (ip), vehicle: saline with Tween-80) 91 % of control.
As for `CO[C@H]1OC(=O)C=C2C1=C[C@H]1OC(=O)[C@@]3(C)CCC[C@@]2(C)[C@@H]13`, the T/C (dose: 12.5 mg/kg/injection, schedule: Q01DX009 (ip), vehicle: Klucel (hydroxypropylcellulose) (HPC)) was 100 % of control and the T/C (dose: 25.0 mg/kg/injection, schedule: Q01DX009 (ip), vehicle: Klucel (hydroxypropylcellulose) (HPC)) was 100 % of control.
